Experimental data as given in patent US10676438B2, “KCNQ2-5 channel activator” (Ono Pharmaceutical Co., Ltd., priority 2014, dated 2020).
≈ marks a conversion by molar mass, not a printed value.

Assays:
[1] = Solubility test (DMSO precipitation method, Pharmacopoeia of Japan elution test second solution); assay type: physicochemical; conditions: aqueous buffer, kinetic from dmso stock; Pharmacopoeia of Japan elution test second solution pH=6.8, room temperature, five hours; quantitation range 5 to 100 μM
Protocol: A calibration curve solution was prepared by diluting a test substance (10 mM DMSO solution) with acetonitrile and adding acetonitrile including an internal standard substance (candesartan) so as to be 0.1, 0.4, and 2 μM.
Sample solution was prepared as follows: 5 μL of the compound of the present invention (10 mM DMSO solution) was added to 495 μL of the Pharmacopoeia of Japan elution test second solution (pH=6.8), and the resulting mixture was stirred at room temperature for five hours. Then, the solution was placed into a solubility filter plate and subjected to suction filtration. The filtrate (20 μL) was diluted with acetonitrile, followed by adding acetonitrile including an internal standard substance ([…]).
The calibration curve and sample solutions in the amount of 5 μL were infused into LC-MS/MS (Discovery Max manufactured by Thermo Scientific) and subjected to quantitation (quantitation range: 5 to 100 μM).

[2] = molecular target: Human KCNQ2/3 channel (Homo sapiens (Human), UniProt O43525+O43526); assay: Opening action with respect to KCNQ2/3 channel by depolarization stimulation (thallium influx, FLIPR); assay type: cell-based; conditions: concentration giving 50% of maximum reaction of retigabine (10 μM); human KCNQ2/3 expression CHO-DHFR- cells; 5 mM potassium and 0.5 mM thallium; read-out: KCNQ2/3 ECrtg50
Protocol: Human KCNQ2/3 expression cells (CHO-DHFR-cells) were seeded in each well of 384 well plate (collagen-coated, black, clear bottom) at 0.5×10^4 cells/50 μL per well, and cultured in a MEM ALPHA medium (containing 10 vol % inactivated (56° C., 30 min) Fetal Bovine Serum and 100 IU/mL Penicillin—100 μg/mL Streptomycin—2 mM L-Glutamine) at 37° C. in 5% CO2 for 18 to 24 hours. The medium in the plate was removed. Then, incubation (room temperature, 60 minutes, light-shielded) was carried out in a loading buffer (prepared by the method described in the manual of FluxOR Thallium Detection Kit (Invitrogen, F10016, F10017)). KCNQ2/3 channel opening action (thallium influx into cells) by the depolarization stimulation (5 mM potassium and 0.5 mM thallium) was measured by FLIPR TETRA (Molecular Devices). The compound of the present invention had been treated five minutes before the depolarization stimulation, and the reaction induced by the depolarization stimulation was measured over time for 180 seconds. The channel opening action of the compound of the present invention was evaluated based on the change amount of the fluorescence intensity from the time before the depolarization stimulation to the time after the passage of 180 seconds. Thus, the concentration (ECrtg50) satisfying 50% of the fluorescence intensity change of maximum reaction (at the time of 10 μM-treatment) of retigabine under this experiment condition was calculated.

[3] = Evaluation of stability in human liver microsome; assay type: in vitro ADME; conditions: 5 μmol/L
Protocol: A test compound (10 mmol/L DMSO solution, 5 μL) was diluted with 50% acetonitrile aqueous solution (195 μL) to prepare 0.25 mmol/L solution.
To a reactor vessel which had been warmed to 37° C. in advance, 0.5 mg/mL of human liver microsome (Xenotech) and 245 μL of 0.1 M phosphate buffer solution (pH 7.4) including NADPH-Co-factor (BD Biosciences) were added, followed by preincubation for five minutes. Then, the above-mentioned test compound solution (5 μL) was added so as to start reaction (final concentration: 5 μmol/L). Immediately after the start, 20 μL was harvested and added to 180 μL of acetonitrile including an internal standard substance (warfarin) to stop the reaction. This solution (20 μL) was stirred with 180 μL of 50% acetonitrile aqueous solution on a plate equipped with a deproteinization filter. Then, the resulting mixture solution was subjected to suction filtration. The filtrate was adopted as a standard sample.
The above-mentioned reaction solution was incubated at 37° C. for 15 minutes, and 20 μL of the solution was added to 180 μL of cooled acetonitrile (including warfarin that is an internal standard substance) to stop the reaction. This solution (20 μL) was stirred with 180 μL of 50% acetonitrile aqueous solution on a plate equipped with a deproteinization filter, and then the resulting mixture solution was subjected to suction filtration. The filtrate was adopted as a reaction sample.
Residual rate (%) was obtained as follows: 1 μL of the sample solution was infused into LC-MS/MS (Discovery Max manufactured by Thermo Scientific), and a quotient obtained by dividing a peak area ratio of the reaction sample (peak area of test compound/peak area of internal standard substance) was divided by the peak area ratio of the standard sample was multiplied by 100.

[4] = tested on: urinary bladder extracted from rat; assay: Relaxing action on urinary bladder extracted from rat (rat Magnus test); conditions: concentration at which tension change rate is -20%; carbachol 1 μM-induced contraction of rat urinary bladder strips
Protocol: Female Jcl Wistar rats (CLEA Japan, Inc., body weight in use: 170 to 200 g) were anesthetized by intraperitoneal administration of about 40 mg/kg of pentobarbital (Somnopentyl, Schering Plough Animal Health Corporation), and killed by bloodletting, followed by abdominal incision to extract the urinary bladder. Immediately, the extracted urinary bladder was immersed in ice-cooled Krebs buffer (Krebs Ringer bicarbonate buffer (Sigma-Aldlich Co.) containing sodium hydrogencarbonate (final concentration: 15 mM) and calcium chloride (final concentration: 2.5 mM)) which had been saturated with a mixed gas (95% O2, 5% CO2).
The urinary bladder bodies were cut in the longitudinal direction to prepare strip specimens (about 10×3 mm) on ice. Immediately, the prepared specimens were suspended in a Magnus tube with 500 mg of tension loaded. The tube was filled with Krebs buffer (37° C.) aerated with a mixed gas. Note here that specimens were prepared within 24 hours after extraction of the tissue.
When one hour or more had passed after the specimen was suspended, 2.5M KCl was added so that the final concentration became 100 mM, specimens showing contraction reaction were used.
Carbachol (a contraction-inducing substance) at the concentration of contraction of 1 μM was used to induce contraction. […] After the contraction reaction was stabilized, a physiological salt solution or the compound of the present invention was added in a cumulative manner from low concentration such that the final concentration became 1, 10, 100 nM, 1 and 10 μM.
The tension (mg) of the extracted urinary bladder was employed as an evaluation parameter. The tension was read by using analysis software WAVE THERMO 1000. Tension after addition of the contraction-inducing substance was set to 0%. The change rate of the tension after addition of the compound of the present invention relative to the tension after addition of the contraction-inducing substance was defined as tension change rate (%). The tension change rate (%) was adopted as an evaluation indicator. The tension change rate (%) is calculated from the following formula. Tension change rate (%)={Tension after addition of compound of the present invention and the like (mg)−Tension before addition of contraction-inducing substance (mg)}/{Tension after addition of contraction-inducing substance (mg)−Tension before addition of contraction-inducing substance (mg)}×100−100
The value at which the tension change rate (%) was −20% was calculated as IC20, and the value was adopted as an indicator of the relaxing action of the extracted urinary bladder.

[5] = molecular target: hERG channel (Homo sapiens (Human), UniProt Q12809); assay: Evaluation of action on hERG IKr current (patch-clamp); assay type: cell-based; conditions: HEK293 cell overexpressing hERG, maximum tail current, 10 minutes after application; read-out: IC50 (50% inhibitory activity of hERG channel)
Sequence of hERG channel (Q12809 whole entry): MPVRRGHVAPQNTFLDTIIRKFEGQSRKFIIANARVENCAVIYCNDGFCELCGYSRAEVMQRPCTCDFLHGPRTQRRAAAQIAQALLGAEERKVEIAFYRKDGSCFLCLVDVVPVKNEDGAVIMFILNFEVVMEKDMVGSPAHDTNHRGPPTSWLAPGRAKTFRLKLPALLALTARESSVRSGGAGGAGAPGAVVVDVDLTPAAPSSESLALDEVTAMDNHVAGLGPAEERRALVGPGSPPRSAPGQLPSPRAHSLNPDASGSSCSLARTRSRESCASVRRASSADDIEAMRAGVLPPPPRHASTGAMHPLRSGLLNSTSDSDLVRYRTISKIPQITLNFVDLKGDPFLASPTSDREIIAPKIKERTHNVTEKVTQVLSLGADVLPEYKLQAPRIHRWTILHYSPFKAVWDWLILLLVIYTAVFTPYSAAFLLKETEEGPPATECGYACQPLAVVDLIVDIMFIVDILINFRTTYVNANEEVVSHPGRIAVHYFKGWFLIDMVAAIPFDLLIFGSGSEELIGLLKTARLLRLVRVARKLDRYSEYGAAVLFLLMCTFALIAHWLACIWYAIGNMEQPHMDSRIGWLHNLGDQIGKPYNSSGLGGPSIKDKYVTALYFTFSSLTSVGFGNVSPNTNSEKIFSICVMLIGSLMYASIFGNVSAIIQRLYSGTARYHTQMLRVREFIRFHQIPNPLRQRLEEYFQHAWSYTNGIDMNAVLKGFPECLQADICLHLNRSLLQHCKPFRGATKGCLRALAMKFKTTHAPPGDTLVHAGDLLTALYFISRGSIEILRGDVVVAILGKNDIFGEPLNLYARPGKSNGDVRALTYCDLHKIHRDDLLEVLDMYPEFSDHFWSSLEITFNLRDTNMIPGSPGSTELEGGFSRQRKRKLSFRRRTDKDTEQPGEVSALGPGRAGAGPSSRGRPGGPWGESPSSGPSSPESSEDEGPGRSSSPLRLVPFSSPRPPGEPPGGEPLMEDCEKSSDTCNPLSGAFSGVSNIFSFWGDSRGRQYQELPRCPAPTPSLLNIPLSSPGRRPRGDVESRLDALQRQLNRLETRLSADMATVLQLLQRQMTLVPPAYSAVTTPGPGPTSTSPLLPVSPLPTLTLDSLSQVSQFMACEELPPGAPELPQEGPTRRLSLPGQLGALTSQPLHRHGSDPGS
Protocol: Using HEK293 cell overexpressing a human ether-a-go-go-related gene (hERG), the maximum tale current of the hERG IKr current induced by redepolarization pulse subsequent to depolarization pulse was measured by a patch-clamp method.

[6] = human liver microsome 0.5 mg/mL, NADPH, 37° C., 15 minutes

solubility at 5 h [1] [µM] | EC50 [2] [nM] | Residual rate ([3]; human, 15 min, pH 7.4) [%] | SMILES | IC20 [4] [nM] | Residual rate [3, 6] [%] | IC50 [5] [nM]
100 (≈ 45.3 µg/mL) | 7 |  | O=C(NCc1nc(C(F)(F)F)no1)Nc1c(Cl)cc([C@@H](O)C(F)(F)F)cc1Cl [Example 32 (1), 1-{2,6-dichloro-4-[(1R)-2,2,2-trifluoro-1-hydroxyethyl]phenyl}-3-{[3-(trifluoromethyl)-1,2,4-oxadiazole-5-yl]methyl}urea] | 20 |  | 
100 (≈ 45.3 µg/mL) | 8 | 100 | O=C(NCc1nc(C(F)(F)F)no1)Nc1c(Cl)cc([C@H](O)C(F)(F)F)cc1Cl [Example 35 (1), 1-{2,6-dichloro-4-[(1S)-2,2,2-trifluoro-1-hydroxyethyl]phenyl}-3-{[3-(trifluoromethyl)-1,2,4-oxadiazole-5-yl]methyl}urea] | 20 |  | 
82 (≈ 33.6 µg/mL) | 60 | 96 | CC(O)(c1cc(Cl)c(NC(=O)Cc2ccc(F)cc2)c(Cl)c1)C(F)(F)F (stereo not drawn) [Example 50 (1), N-[2,6-dichloro-4-(1,1,1-trifluoro-2-hydroxy-2-propanyl)phenyl]-2-(4-fluorophenyl)acetamide] |  |  | > 10000
 | 1700 | 98 | Cc1cc(C(O)C(F)(F)F)ccc1NC(=O)NCc1ccc(C(F)(F)F)cn1 (stereo not drawn) [Example 60, 1-[2-methyl-4-(2,2,2-trifluoro-1-hydroxyethyl)phenyl]-3-{[5-(trifluoromethyl)-2-pyridinyl]methyl}urea] |  |  | 
 | 400 | 100 | CC(O)(c1cc(Cl)c(NC(=O)NCc2ccc(C(F)(F)F)cn2)c(Cl)c1)C(F)F (stereo not drawn) [Example 75, 1-[2,6-dichloro-4-(1,1-difluoro-2-hydroxy-2-propanyl)phenyl]-3-{[5-(trifluoromethyl)-2-pyridinyl]methyl}urea] |  |  | 

The remaining lines, values behind:

SMILES | solubility at 5 h [1] [µM] | EC50 [2] [nM] | Residual rate ([3]; human, 15 min, pH 7.4) [%] | IC20 [4] [nM] | Residual rate [3, 6] [%] | IC50 [5] [nM]
CC(O)(c1cc(Cl)c(NC(=O)NCc2cc3cc(F)ccc3[nH]2)c(Cl)c1)C(F)(F)F (stereo not drawn) [Example 5 (13), 1-[2,6-dichloro-4-(1,1,1-trifluoro-2-hydroxy-2-propanyl)phenyl]-3-[(5-fluoro-1H-indole-2-yl)methyl]urea] | 81 (≈ 37.6 µg/mL) | 600 | 75 |  |  | 
CC(O)(c1cc(Cl)c(NC(=O)NC[C@@H]2CCCO2)c(Cl)c1)C(F)(F)F (stereo partly drawn) [Example 5 (15), 1-[2,6-dichloro-4-(1,1,1-trifluoro-2-hydroxy-2-propanyl)phenyl]-3-[(2S)-tetrahydro-2-furanylmethyl]urea] | 90 (≈ 36.1 µg/mL) | 2300 | 97 |  |  | 
CC(O)(c1cc(Cl)c(NC(=O)NCCC(F)(F)F)c(Cl)c1)C(F)(F)F (stereo not drawn) [Example 5 (19), 1-[2,6-dichloro-4-(1,1,1-trifluoro-2-hydroxy-2-propanyl)phenyl]-3-(3,3,3-trifluoropropyl)urea] | 76 (≈ 31.4 µg/mL) | 100 | 100 |  |  | 
C[C@@H](NC(=O)Nc1c(Cl)cc(C(C)(O)C(F)(F)F)cc1Cl)C1CC1 (stereo partly drawn) [Example 5 (20), 1-[(1R)-1-cyclopropylethyl]-3-[2,6-dichloro-4-(1,1,1-trifluoro-2-hydroxy-2-propanyl)phenyl]urea] | 100 (≈ 38.5 µg/mL) | 500 | 91 |  |  | 
C[C@@](O)(c1cc(Cl)c(NC(=O)NCc2ccc(C#N)cc2)c(Cl)c1)C(F)(F)F [Example 22 (15), 1-(4-cyanobenzyl)-3-{2,6-dichloro-4-[(2R)-1,1,1-trifluoro-2-hydroxy-2-propanyl]phenyl}urea] |  | 200 | 93 |  |  | 
C[C@@](O)(c1cc(Cl)c(NC(=O)NCc2ccc(Oc3ccc(F)cc3)cc2)c(Cl)c1)C(F)(F)F [Example 22 (16), 1-{2,6-dichloro-4-[(2R)-1,1,1-trifluoro-2-hydroxy-2-propanyl]phenyl}-3-[4-(4-fluorophenoxyl)benzyl]urea] |  | 4 | 94 |  |  | 
C[C@@](O)(c1cc(Cl)c(NC(=O)NCc2nc(C(F)(F)F)no2)c(Cl)c1)C(F)(F)F [Example 23, 1-{2,6-dichloro-4-[(2R)-1,1,1-trifluoro-2-hydroxy-2-propanyl]phenyl}-3-{[3-(trifluoromethyl)-1,2,4-oxadiazole-5-yl]methyl}urea] | 46 (≈ 21.5 µg/mL) | 10 |  | 100 | 100 | 
C[C@](O)(c1cc(Cl)c(NC(=O)NCc2ccc(OCC(F)(F)F)nc2)c(Cl)c1)C(F)(F)F [Example 25 (6), 1-{2,6-dichloro-4-[(2S)-1,1,1-trifluoro-2-hydroxy-2-propanyl]phenyl}-3-{[6-(2,2,2-trifluoroethoxy)-3-pyridinyl]methyl}urea] | 40 (≈ 20.2 µg/mL) | 60 | 73 |  |  | 
C[C@](O)(c1cc(Cl)c(NC(=O)NCc2nc(C(F)(F)F)no2)c(Cl)c1)C(F)(F)F [Example 26, 1-{2,6-dichloro-4-[(2S)-1,1,1-trifluoro-2-hydroxy-2-propanyl]phenyl}-3-{[3-(trifluoromethyl)-1,2,4-oxadiazole-5-yl]methyl}urea] | 59 (≈ 27.6 µg/mL) | 40 |  | 200 | 64 | 
